According to PubChem BioAssay (NCI):
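Exposure lasted 48 hours, with cells grown in 96-well plates and compounds tested at five concentrations. Abbreviation: GI50, concentration required for 50% inhibition of growth. At the TGI there is no net growth.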

Columns and labels:
Experiment in all cases: NCI anticancer screen, dose series, 48 h
A498 renal = tested on: A498 renal
UACC-62 melanoma = tested on: UACC-62 melanoma
LOX IMVI melanoma = tested on: LOX IMVI melanoma
SNB-75 CNS = tested on: SNB-75 CNS
RPMI-8226 leukemia = tested on: RPMI-8226 leukemia
OVCAR-5 ovarian = tested on: OVCAR-5 ovarian
COLO 205 colon = tested on: COLO 205 colon
RXF 393 renal = tested on: RXF 393 renal
MALME-3M melanoma = tested on: MALME-3M melanoma
KM12 colon = tested on: KM12 colon
OVCAR-4 ovarian = tested on: OVCAR-4 ovarian
SK-OV-3 ovarian = tested on: SK-OV-3 ovarian
MDA-MB-435 = tested on: MDA-MB-435
M14 melanoma = tested on: M14 melanoma
OVCAR-8 ovarian = tested on: OVCAR-8 ovarian
HS 578T breast = tested on: HS 578T breast
SNB-19 CNS = tested on: SNB-19 CNS
DU-145 prostate = tested on: DU-145 prostate
SW-620 colon = tested on: SW-620 colon
HOP-62 NSCLC = tested on: HOP-62 NSCLC
K-562 leukemia = tested on: K-562 leukemia
SK-MEL-5 melanoma = tested on: SK-MEL-5 melanoma
786-0 renal = tested on: 786-0 renal
ACHN renal = tested on: ACHN renal
SF-539 CNS = tested on: SF-539 CNS
T-47D breast = tested on: T-47D breast
MDA-MB-231 breast = tested on: MDA-MB-231 breast
U251 CNS = tested on: U251 CNS
CCRF-CEM leukemia = tested on: CCRF-CEM leukemia
HCT-116 colon = tested on: HCT-116 colon
OVCAR-3 ovarian = tested on: OVCAR-3 ovarian
NCI/ADR-RES ovarian = tested on: NCI/ADR-RES ovarian
SF-268 CNS = tested on: SF-268 CNS
HOP-92 NSCLC = tested on: HOP-92 NSCLC
SK-MEL-2 melanoma = tested on: SK-MEL-2 melanoma
EKVX NSCLC = tested on: EKVX NSCLC
A549 NSCLC = tested on: A549 NSCLC
MCF7 breast = tested on: MCF7 breast
SK-MEL-28 melanoma = tested on: SK-MEL-28 melanoma
NCI-H460 lung = tested on: NCI-H460 lung
UO-31 renal = tested on: UO-31 renal
UACC-257 melanoma = tested on: UACC-257 melanoma
BT-549 breast = tested on: BT-549 breast
SN12C renal = tested on: SN12C renal
HCC-2998 colon = tested on: HCC-2998 colon
NCI-H226 lung = tested on: NCI-H226 lung
HL-60(TB) leukemia = tested on: HL-60(TB) leukemia
HCT-15 colon = tested on: HCT-15 colon
HT29 colon = tested on: HT29 colon
TK-10 renal = tested on: TK-10 renal
SF-295 CNS = tested on: SF-295 CNS
NCI-H522 lung = tested on: NCI-H522 lung
MOLT-4 leukemia = tested on: MOLT-4 leukemia
PC-3 prostate = tested on: PC-3 prostate
IGROV1 ovarian = tested on: IGROV1 ovarian

CN1CCN(c2ccc(N3Cc4ccccc4OC4=C3C(=O)c3c(O)ccc(O)c3C4=O)cn2)CC1 gave a GI50 (A498 renal) of 2150 nM, a TGI (A498 renal) of 4940 nM and a GI50 (UACC-62 melanoma) of 330 nM. For the same compound, the TGI (UACC-62 melanoma) was 1040 nM, the GI50 (LOX IMVI melanoma) was 215 nM and the TGI (LOX IMVI melanoma) was 618 nM. For the same compound, the GI50 (SNB-75 CNS) was 907 nM, the TGI (SNB-75 CNS) was 5400 nM and the GI50 (RPMI-8226 leukemia) was 260 nM. For the same compound, the TGI (RPMI-8226 leukemia) was 901 nM, the GI50 (OVCAR-5 ovarian) was 692 nM and the TGI (OVCAR-5 ovarian) was 1950 nM. It also gave a GI50 (COLO 205 colon) of 126 nM, a TGI (COLO 205 colon) of 302 nM and a GI50 (RXF 393 renal) of 164 nM. The TGI (RXF 393 renal) was 346 nM, the GI50 (MALME-3M melanoma) was 89.3 nM and the TGI (MALME-3M melanoma) was 298 nM. For the same compound, the GI50 (KM12 colon) was 1180 nM, the TGI (KM12 colon) was 3600 nM and the GI50 (OVCAR-4 ovarian) was 264 nM. The TGI (OVCAR-4 ovarian) was 855 nM, the GI50 (SK-OV-3 ovarian) was 2920 nM and the TGI (SK-OV-3 ovarian) was 11400 nM. For the same compound, the GI50 (MDA-MB-435) was 234 nM, the TGI (MDA-MB-435) was 575 nM and the GI50 (M14 melanoma) was 244 nM. The TGI (M14 melanoma) was 651 nM, the GI50 (OVCAR-8 ovarian) was 370 nM and the TGI (OVCAR-8 ovarian) was 4570 nM. For the same compound, the GI50 (HS 578T breast) was 876 nM, the TGI (HS 578T breast) was greater than 100000 nM and the GI50 (SNB-19 CNS) was 742 nM. It also gave a TGI (SNB-19 CNS) of 2570 nM, a GI50 (DU-145 prostate) of 360 nM and a TGI (DU-145 prostate) of 1290 nM. It also gave a GI50 (SW-620 colon) of 196 nM, a TGI (SW-620 colon) of 635 nM and a GI50 (HOP-62 NSCLC) of 1550 nM. The TGI (HOP-62 NSCLC) was 4880 nM, the GI50 (K-562 leukemia) was 71.3 nM and the TGI (K-562 leukemia) was 2530 nM. The GI50 (SK-MEL-5 melanoma) was 1270 nM, the TGI (SK-MEL-5 melanoma) was 2750 nM and the GI50 (786-0 renal) was 191 nM. It also gave a TGI (786-0 renal) of 404 nM, a GI50 (ACHN renal) of 57.4 nM and a TGI (ACHN renal) of 203 nM. The GI50 (SF-539 CNS) was 233 nM, the TGI (SF-539 CNS) was 595 nM and the GI50 (T-47D breast) was 184 nM. It also gave a TGI (T-47D breast) of 706 nM, a GI50 (MDA-MB-231 breast) of 275 nM and a TGI (MDA-MB-231 breast) of 706 nM. It also gave a GI50 (U251 CNS) of 397 nM, a TGI (U251 CNS) of 1590 nM and a GI50 (CCRF-CEM leukemia) of 97.2 nM. It also gave a TGI (CCRF-CEM leukemia) greater than 33500 nM, a GI50 (HCT-116 colon) of 113 nM and a TGI (HCT-116 colon) of 326 nM. It also gave a GI50 (OVCAR-3 ovarian) of 167 nM, a TGI (OVCAR-3 ovarian) of 469 nM and a GI50 (NCI/ADR-RES ovarian) of 403 nM. The TGI (NCI/ADR-RES ovarian) was greater than 100000 nM, the GI50 (SF-268 CNS) was 580 nM and the TGI (SF-268 CNS) was 2430 nM. The GI50 (HOP-92 NSCLC) was 230 nM, the TGI (HOP-92 NSCLC) was 499 nM and the GI50 (SK-MEL-2 melanoma) was 738 nM. It also gave a TGI (SK-MEL-2 melanoma) of 2230 nM, a GI50 (EKVX NSCLC) of 244 nM and a TGI (EKVX NSCLC) of 1240 nM. It also gave a GI50 (A549 NSCLC) of 2180 nM, a TGI (A549 NSCLC) of 6730 nM and a GI50 (MCF7 breast) of 149 nM. It also gave a TGI (MCF7 breast) of 585 nM, a GI50 (SK-MEL-28 melanoma) of 282 nM and a TGI (SK-MEL-28 melanoma) of 762 nM. The GI50 (NCI-H460 lung) was 1170 nM, the TGI (NCI-H460 lung) was 3830 nM and the GI50 (UO-31 renal) was 163 nM. For the same compound, the TGI (UO-31 renal) was 557 nM, the GI50 (UACC-257 melanoma) was 426 nM and the TGI (UACC-257 melanoma) was 1170 nM. The GI50 (BT-549 breast) was 251 nM, the TGI (BT-549 breast) was 723 nM and the GI50 (SN12C renal) was 316 nM. It also gave a TGI (SN12C renal) of 1100 nM, a GI50 (HCC-2998 colon) of 1280 nM and a TGI (HCC-2998 colon) of 2780 nM. The GI50 (NCI-H226 lung) was 2260 nM, the TGI (NCI-H226 lung) was 12000 nM and the GI50 (HL-60(TB) leukemia) was 135 nM. The TGI (HL-60(TB) leukemia) was 445 nM, the GI50 (HCT-15 colon) was 186 nM and the TGI (HCT-15 colon) was 638 nM. It also gave a GI50 (HT29 colon) of 209 nM, a TGI (HT29 colon) of 562 nM and a GI50 (TK-10 renal) of 260 nM. It also gave a TGI (TK-10 renal) of 825 nM, a GI50 (SF-295 CNS) of 1870 nM and a TGI (SF-295 CNS) of 5000 nM. The GI50 (NCI-H522 lung) was 32.2 nM, the TGI (NCI-H522 lung) was 134 nM and the GI50 (MOLT-4 leukemia) was 89.5 nM. It also gave a TGI (MOLT-4 leukemia) of 5380 nM, a GI50 (PC-3 prostate) of 385 nM and a TGI (PC-3 prostate) of 1630 nM. The GI50 (IGROV1 ovarian) was 272 nM and the TGI (IGROV1 ovarian) was 1010 nM.
